Reference: ChEMBL document CHEMBL1201862, “PubChem BioAssay data set” (2004)
Activity calls are given as the source filed them.

Tests used:
[1] = target: Serine/threonine-protein phosphatase PP1-alpha catalytic subunit (Homo sapiens, UniProt P62136); experiment: PP1 phosphatase inhibitors, dose response, biochemical, fluorescence (AID 2394)
[2] = target: T1, Apoptotic protease-activating factor 1 (Homo sapiens, UniProt O14727); assay type: functional
T1 sequence (O14727 whole entry): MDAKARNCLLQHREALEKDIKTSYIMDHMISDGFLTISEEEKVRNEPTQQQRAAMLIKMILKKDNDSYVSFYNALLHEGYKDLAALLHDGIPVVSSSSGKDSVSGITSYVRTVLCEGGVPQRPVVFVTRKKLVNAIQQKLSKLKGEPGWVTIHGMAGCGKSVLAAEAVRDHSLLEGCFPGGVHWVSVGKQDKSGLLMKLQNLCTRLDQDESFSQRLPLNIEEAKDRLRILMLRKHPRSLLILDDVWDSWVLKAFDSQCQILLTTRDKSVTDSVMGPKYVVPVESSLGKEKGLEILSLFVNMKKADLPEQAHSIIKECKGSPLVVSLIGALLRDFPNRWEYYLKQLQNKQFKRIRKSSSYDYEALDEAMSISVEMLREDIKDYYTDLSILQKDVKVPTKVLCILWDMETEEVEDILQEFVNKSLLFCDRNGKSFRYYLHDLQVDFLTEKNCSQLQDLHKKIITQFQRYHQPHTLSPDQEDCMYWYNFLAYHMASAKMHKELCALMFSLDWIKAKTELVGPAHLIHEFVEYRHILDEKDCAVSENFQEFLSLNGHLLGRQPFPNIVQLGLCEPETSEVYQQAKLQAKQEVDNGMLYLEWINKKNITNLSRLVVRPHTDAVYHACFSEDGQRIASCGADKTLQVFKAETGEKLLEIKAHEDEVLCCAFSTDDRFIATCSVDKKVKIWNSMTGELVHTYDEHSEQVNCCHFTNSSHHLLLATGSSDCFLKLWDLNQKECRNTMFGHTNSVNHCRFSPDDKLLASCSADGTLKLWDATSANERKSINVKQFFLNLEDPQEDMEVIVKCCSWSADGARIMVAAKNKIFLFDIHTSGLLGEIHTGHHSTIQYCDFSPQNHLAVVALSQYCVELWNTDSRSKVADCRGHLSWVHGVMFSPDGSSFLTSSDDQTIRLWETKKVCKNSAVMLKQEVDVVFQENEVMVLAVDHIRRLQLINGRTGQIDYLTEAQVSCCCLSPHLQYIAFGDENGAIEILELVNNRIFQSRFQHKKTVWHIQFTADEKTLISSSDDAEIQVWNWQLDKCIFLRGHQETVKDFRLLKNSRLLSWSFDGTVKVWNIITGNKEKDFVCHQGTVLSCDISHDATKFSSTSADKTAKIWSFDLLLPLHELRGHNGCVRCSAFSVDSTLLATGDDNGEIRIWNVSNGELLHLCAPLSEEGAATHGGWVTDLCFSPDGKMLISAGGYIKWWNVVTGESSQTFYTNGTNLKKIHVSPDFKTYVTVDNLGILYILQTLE

[3] = target: T2, Histone-lysine N-methyltransferase NSD2 (Homo sapiens, UniProt O96028); assay type: biochemical
T2 sequence (O96028 whole entry): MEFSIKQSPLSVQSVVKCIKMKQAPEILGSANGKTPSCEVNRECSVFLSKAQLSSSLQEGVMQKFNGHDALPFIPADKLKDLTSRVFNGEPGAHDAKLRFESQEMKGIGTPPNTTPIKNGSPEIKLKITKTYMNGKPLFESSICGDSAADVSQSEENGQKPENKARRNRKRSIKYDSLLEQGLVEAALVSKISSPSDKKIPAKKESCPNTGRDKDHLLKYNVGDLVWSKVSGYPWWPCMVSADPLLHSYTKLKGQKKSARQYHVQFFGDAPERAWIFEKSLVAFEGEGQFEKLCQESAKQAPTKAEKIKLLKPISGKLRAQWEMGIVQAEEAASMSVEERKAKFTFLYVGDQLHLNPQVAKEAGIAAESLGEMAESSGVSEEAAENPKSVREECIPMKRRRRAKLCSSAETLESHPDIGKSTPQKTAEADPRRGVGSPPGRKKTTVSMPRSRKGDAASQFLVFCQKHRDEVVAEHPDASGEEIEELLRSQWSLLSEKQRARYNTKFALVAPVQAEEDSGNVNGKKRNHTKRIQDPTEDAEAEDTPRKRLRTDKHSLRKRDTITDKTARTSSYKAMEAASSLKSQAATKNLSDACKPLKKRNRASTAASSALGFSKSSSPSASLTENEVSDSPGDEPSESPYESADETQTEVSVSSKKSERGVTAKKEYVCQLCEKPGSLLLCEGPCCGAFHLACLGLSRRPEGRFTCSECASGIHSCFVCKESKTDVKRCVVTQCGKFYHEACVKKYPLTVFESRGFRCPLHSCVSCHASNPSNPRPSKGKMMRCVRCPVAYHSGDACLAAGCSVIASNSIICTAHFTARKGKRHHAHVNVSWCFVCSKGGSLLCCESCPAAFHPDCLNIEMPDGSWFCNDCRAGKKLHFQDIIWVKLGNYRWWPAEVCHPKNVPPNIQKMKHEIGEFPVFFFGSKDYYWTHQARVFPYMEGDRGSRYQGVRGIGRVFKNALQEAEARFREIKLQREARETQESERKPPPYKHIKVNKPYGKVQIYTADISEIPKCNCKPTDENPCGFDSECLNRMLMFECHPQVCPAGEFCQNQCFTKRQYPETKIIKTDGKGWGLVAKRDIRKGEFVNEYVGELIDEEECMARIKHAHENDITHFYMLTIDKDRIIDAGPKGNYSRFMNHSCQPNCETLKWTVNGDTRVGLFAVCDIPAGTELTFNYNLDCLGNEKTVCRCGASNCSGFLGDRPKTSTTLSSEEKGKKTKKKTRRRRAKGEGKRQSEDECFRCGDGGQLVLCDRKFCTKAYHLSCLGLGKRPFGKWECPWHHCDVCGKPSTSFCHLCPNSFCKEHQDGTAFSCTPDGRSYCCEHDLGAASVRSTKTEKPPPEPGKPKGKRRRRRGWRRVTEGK

[4] = target: T3, Tyrosyl-DNA phosphodiesterase 2 (Homo sapiens, UniProt O95551); experiment: human TDP2 enzyme inhibitors, dose response, biochemical, epi absorbance, IC50 (AID 743297)
T3 sequence (O95551 whole entry): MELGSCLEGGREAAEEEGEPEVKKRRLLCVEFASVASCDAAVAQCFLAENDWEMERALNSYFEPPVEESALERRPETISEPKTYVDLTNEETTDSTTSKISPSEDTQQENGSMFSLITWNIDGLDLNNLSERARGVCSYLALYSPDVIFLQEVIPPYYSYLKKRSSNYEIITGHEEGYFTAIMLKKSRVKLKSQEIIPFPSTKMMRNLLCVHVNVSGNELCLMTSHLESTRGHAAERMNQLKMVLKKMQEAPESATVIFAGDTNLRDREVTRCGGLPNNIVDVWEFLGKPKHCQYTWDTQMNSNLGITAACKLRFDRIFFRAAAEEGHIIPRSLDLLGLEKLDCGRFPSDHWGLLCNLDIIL

[5] = inhibitors of SNCA 5'UTR-driven reporter translation, confirmation, H4 neuroglioma cells, luminescence (AID 1988); assay type: functional, cell-based

Chain of Serine/threonine-protein phosphatase PP1-alpha catalytic subunit (P62136 whole entry): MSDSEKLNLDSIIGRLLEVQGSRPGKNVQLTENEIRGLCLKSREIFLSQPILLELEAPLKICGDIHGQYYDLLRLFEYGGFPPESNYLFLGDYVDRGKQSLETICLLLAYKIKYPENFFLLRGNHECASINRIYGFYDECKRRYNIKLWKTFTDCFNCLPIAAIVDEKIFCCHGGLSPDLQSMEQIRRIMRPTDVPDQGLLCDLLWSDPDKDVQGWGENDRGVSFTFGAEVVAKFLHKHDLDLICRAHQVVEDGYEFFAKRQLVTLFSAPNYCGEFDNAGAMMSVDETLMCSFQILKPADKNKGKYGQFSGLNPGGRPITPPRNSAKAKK

Compound: COc1ccc(NC(=S)Nc2ccc3nsnc3c2)cc1
- IC50 [1]: > 67 µM (not active)
- IC50 [2]: 10.8 µM (active)
- AC50 [3]: 3.57 µM (active)
- IC50 [4]: 9.93 µM (active)

Compound: CC(C)(C)c1cc[n+](C2=C([N-]S(=O)(=O)c3ccccc3)C(=O)c3ccccc3C2=O)cc1
- EC50 [5]: 9.04 µM (active)
- AC50 [3]: 2.63 µM (active)

Compound: O=C1C=C(Nc2ccccc2C(=O)O)c2ccccc2C1=O
- IC50 [2]: 3.84 µM (active)
- IC50 [4]: 6.56 µM (active)
